As a reminder, the pKa is the pH at which an ionisable group is half protonated. Usually EC50 stands for the midpoint of the concentration-response curve.

We go through 7 molecules from patent US10800807B2, “TGR5 modulators and methods of use thereof” (Intercept Pharmaceuticals, Inc., priority 2015, dated 2020).

Changes are numbered by the printed parent chain. ≈ marks a conversion by molar mass, not a printed value.

Series [1] can be described thus: Lipophilicity, 1-octanol/water partition coefficient (shake-flask). The class given is physicochemical. To be noted: pH 8.00, ionized BA. The protocol: The experiments were carried out on 1 mM initial bile salt solution buffered at pH 8.00 with 0.1 M potassium phosphate buffer to ensure complete ionization of the BA. BA concentration in the water phase before and after partition in 1-octanol was measured by HPLC-ESMS/MS as reported below.

Series [2] can be described thus: Critical micellar concentration (surface tension / dye solubilization). In kind it is physicochemical.
Experiment in series [3]: as above
In kind it is physicochemical. The note with it: for CMC: BA sodium salts in 0.1 M NaCl, 25° C.; for STCMC: surface tension at CMC. The protocol: In the first method, the surface tension was performed by maximum bubble-pressure method using a Sensadyne 6000 tensiometer (Chem-Dyne Research Corp., Milwaukee, Wis.). The surface tension of aqueous solutions at various concentrations (range 0.1-100 mM) of the BA sodium salts in 0.1 M NaCl was measured at 25° C. The surface tension values were plotted against the logarithm of the bile salt concentration; the regression lines corresponding to the two parts of the curve (monomeric and micellar phases) were calculated using the method of least squares. The critical micellar concentration (CMC) value (mM) was obtained by the intersection of the two lines.
The second method is based on the fact that some dyes, specifically Orange OT ([…]), are almost insoluble in water but dissolve in solutions with micellar aggregates that incorporate them; thus, the intensity of color of the solution increases with bile salt concentration (after CMC achievement). The amount of dye solubilized in relation to bile salt concentration was determined spectrophotometrically.
For each bile acid, various solution at different concentrations, between 50 mM and 0.1 mM with appropriate dilutions, were incubated under stirring at room temperature for 3 days with an excess of Orange OT. Then all the solutions were centrifuged and filtered through a 0.22 μm Millipore fiiter (Millipore Corp., Bedford, Mass.).

The next series addresses bovine serum albumin (Bos taurus, UniProt P02769). Nature of the series: Albumin binding by equilibrium dialysis. To be noted: 5% bovine serum albumin saline solution, 25° C. The class given is in vitro ADME. The method, then: BA was dissolved at a concentration of […] in 5% bovine serum albumin saline solution and left to stand for 24 hours at 25° C. Two milliliters of this solution was dialyzed in cellulose sacs with a molecular weight cut-off of 12-14 kDa (Spectra/Por; Spectrum Medical Industries Inc., Rancho Dominguez, Calif.) against 25 ml of saline solution. The system was equilibrated by mechanical shaking for 72 hours at 25° C. BA concentrations in the starting solution and in the dialyzed solution were determined by HPLC-ES-MS/MS as reported below.
Background: In equilibrium dialysis free small molecules cross a membrane that holds back macromolecules.

Series [4] deals with T1, TGR5 (Homo sapiens, UniProt Q8TDU6).
T1 sequence (Q8TDU6 1-330): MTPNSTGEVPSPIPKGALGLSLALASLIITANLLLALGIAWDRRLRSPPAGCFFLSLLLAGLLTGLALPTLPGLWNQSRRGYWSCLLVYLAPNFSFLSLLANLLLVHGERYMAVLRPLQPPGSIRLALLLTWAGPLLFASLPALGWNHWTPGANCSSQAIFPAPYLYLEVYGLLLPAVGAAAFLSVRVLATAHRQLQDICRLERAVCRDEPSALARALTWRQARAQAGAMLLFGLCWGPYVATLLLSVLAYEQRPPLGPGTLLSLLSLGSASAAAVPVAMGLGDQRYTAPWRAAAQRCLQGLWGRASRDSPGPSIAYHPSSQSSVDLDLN
Nature of the series: TGR5 activity: cAMP in hTGR5 CHO-k1 cells. The class given is cell-based. Details: expressed in transfected cells; host or cells: CHO-k1. The note with it: hTGR5 CHO cells; for Emax: 0.5 h, Ref. LCA 100% at 10 μM, read-out: hTGR5 CHO Efficacy; for EC50: cAMP.

Series [5] concerns the target T1, TGR5. As to the kind of experiment: TGR5 activity: intracellular cAMP levels, NCI-H716 cells (HTR-FRET). The class given is cell-based. The arrangement: endogenous in cells; host or cells: NCI-H716. To be noted: NCI-H716 cells; for Emax: 1 h, Ref. LCA 100% at 10 μM, read-out: TGR5 (NCI-H716) Efficacy; for EC50: cAMP. The protocol:
Activation of TGR5 was assessed by measuring the level of cAMP using an HTR-FRET assay. Thus, NCI-H716 cells were cultured on 96-well plates coated with Matrigel (Corning, USA) (0.75 mg/ml) in DMEM supplemented with 10% FCS, 100 units/ml penicillin, and 100 μg/ml streptomycin sulphate. […] The level of intracellular cAMP was determined with Lance kit. Z′ factor was used to validate assays.
(Changes in cAMP serve as a functional read-out for many G protein-coupled receptors.)

In another series the target is T2, mTGR5 (Mus musculus, UniProt Q80SS6).
T2 construct: expressed in transfected cells; host or cells: CHO-Pi10 clone 4
T2 sequence (Q80SS6 1-329): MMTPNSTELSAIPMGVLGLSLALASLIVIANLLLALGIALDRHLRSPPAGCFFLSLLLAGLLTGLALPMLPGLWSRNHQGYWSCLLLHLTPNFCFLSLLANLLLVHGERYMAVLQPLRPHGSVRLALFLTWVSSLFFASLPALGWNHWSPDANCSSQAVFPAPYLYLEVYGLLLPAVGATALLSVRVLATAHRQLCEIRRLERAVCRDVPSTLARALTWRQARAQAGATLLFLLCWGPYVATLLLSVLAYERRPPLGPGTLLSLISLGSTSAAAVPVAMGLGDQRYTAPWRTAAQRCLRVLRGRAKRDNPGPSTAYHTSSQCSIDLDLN
As to the kind of experiment: TGR5 activity: cAMP in mTGR5 CHO-Pi10 clone 4 cells. The class given is cell-based. The note with it: mTGR5 CHO cells, value in parentheses; for Emax: 0.5 h, read-out: (mTGR5 CHO) Efficacy.

Series [6] concerns the target T3, mouse glutathione transferase-tagged FXR-LBD (Mus musculus, UniProt Q60641).
T3 construct: mouse glutathione transferase-tagged FXR-LBD (generated in-house); made in house
T3 sequence (Q60641 264-488 limits assumed): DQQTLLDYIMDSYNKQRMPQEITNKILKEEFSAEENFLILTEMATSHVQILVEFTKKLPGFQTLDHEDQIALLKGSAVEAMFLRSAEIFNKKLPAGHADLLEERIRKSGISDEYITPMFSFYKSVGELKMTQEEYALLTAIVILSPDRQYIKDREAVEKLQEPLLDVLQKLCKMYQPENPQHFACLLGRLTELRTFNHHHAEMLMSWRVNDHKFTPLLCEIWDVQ
As to the kind of experiment: FXR AlphaScreen coactivator recruitment assay (mouse). The class given is biochemical. The note with it: mouse FXR-LBD, value in parentheses; for EC50: read-out: (mFXR) EC50; for Emax: read-out: (mFXR) Efficacy. The method, then:
(§1) Activation of the FXR receptor was determined using a recruitment coactivator assay, namely AlphaScreen technology. The assays were performed using human glutathione transferase-tagged FXR-LBD (Life Technologies, USA) and mouse glutathione transferase-tagged FXR-LBD (generated in-house). Briefly, assays were conducted in white, low-volume, 384-well OptiPlate using a final volume of 25 μL containing 10 nM glutathione transferase-tagged FXR-LBD protein and 30 nM biotinylated Src-1 peptide. The stimulation was carried out with different BA concentrations for 30 minutes at 25° C. […] Dose-response curves were performed in triplicate and Z′ factor was used to validate the robustness of the assay.
Background: Alpha assays give light when donor and acceptor beads are brought close together.

Series [7] concerns the target T4, human glutathione transferase-tagged FXR-LBD (Homo sapiens, UniProt Q96RI1).
T4 construct: human glutathione transferase-tagged FXR-LBD (Life Technologies, USA); purchased Life Technologies, USA
T4 sequence (Q96RI1 262-486 limits assumed): T3 sequence (Q60641 264-488 limits assumed) with D7H, Y8F, S46N, I50V, A95S, A98S, K107N, V125I, M174I, Y175H
As to the kind of experiment: FXR AlphaScreen coactivator recruitment assay (human).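 On hFXR Efficacy: CDCA at 50 µM taken as 100%.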 The class given is biochemical. The arrangement: Emax: dose or concentration left out as unconfirmed. To be noted: for EC50: human FXR-LBD, AlphaScreen, read-out: hFXR EC50; for Emax: read-out: hFXR Efficacy. The protocol:
as §1

Another series can be described thus: Water solubility. In kind it is physicochemical. To be noted: 0.1 M HCl, pH 1.00, 25° C.; for solubility thermodynamic at 1 week: simulated gastric fluid, thermodynamic from solid, read-out: Ws; for Ws: 1 week. The method, then: BA were suspended in 100 ml of 0.1 M HCl, pH 1.00, and the saturated solutions were transferred to a thermostat-equipped water bath maintained at 25° C. After incubation for 1 week, the solutions were filtered on a Millipore filter ([…]), and the concentration of BA was measured by HPLC-ESMS/MS as reported below.

Chain of bovine serum albumin (P02769 25-607): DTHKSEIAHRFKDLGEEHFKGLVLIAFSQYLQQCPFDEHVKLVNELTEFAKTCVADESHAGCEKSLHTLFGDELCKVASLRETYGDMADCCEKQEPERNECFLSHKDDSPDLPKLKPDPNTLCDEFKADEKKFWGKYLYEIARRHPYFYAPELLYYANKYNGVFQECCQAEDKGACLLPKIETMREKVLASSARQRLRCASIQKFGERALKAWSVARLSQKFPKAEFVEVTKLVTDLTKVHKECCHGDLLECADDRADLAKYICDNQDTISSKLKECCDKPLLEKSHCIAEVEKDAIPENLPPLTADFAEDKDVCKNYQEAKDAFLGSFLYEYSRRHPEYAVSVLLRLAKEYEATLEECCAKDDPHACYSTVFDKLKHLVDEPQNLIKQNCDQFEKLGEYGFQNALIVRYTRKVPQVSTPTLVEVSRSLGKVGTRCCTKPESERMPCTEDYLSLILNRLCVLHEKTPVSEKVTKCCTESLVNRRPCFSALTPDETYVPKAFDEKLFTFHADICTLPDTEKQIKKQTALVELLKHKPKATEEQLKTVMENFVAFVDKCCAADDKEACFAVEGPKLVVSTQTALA

Turning to `C[C@H](CCC(=O)O)[C@H]1CC[C@H]2[C@@H]3[C@H](O)C[C@@H]4C[C@H](O)CC[C@]4(C)[C@H]3CC[C@]12C` [CDCA, chenodeoxycholic acid, reference compound], the pKa in the series “pKa” is 5. Also, the “LogPA−” value in [1] is given as 2.2. The CMpH in series [2] is given as 7. In [3], the CMC amounted to 3.2 mM and the STCMC is 45.5 Dyne/cm. The “Albumin binding (%)” value on bovine serum albumin is recorded as 96%.
Consider `CC[C@H]1[C@@H](O)C2C3CC[C@H]([C@H](C)CCc4nn[nH]n4)[C@@]3(C)CCC2[C@@]2(C)CC[C@@H](O)C[C@@H]12` (stereo partly drawn) [Compound 15, 3α,7α-Dihydroxy-6α-ethyl-23-(tetrazol-5-yl)-6α-ethyl-24-nor-5β-cholane], for which the pKa in the series “pKa” came to 5.59. Further, the Emax on TGR5 [4] was 99 ± 3%; at TGR5 [5] it was 97 ± 7.6%; on mTGR5, 102%; in [6], 222%; in [7], 173 ± 22%. Further, the EC50 on TGR5 [4] was found to be 720 ± 50 nM; on TGR5 [5], 5000 ± 1000 nM; at mTGR5, 440 nM; in series [6] it was 6000 nM; in series [7], 150 ± 50 nM. Further, the “LogPA−” value in series [1] stood at 1.2. In addition, the solubility thermodynamic at 1 week in “Water solubility” was 132 µM (≈ 58.7 µg/mL). Moreover, the “Albumin binding (%)” value at bovine serum albumin is 76%.
`CC[C@H]1[C@@H](O)C2C3CC[C@H]([C@H](C)CC(=O)NCCOS(=O)(=O)[O-])[C@@]3(C)CCC2[C@@]2(C)CC[C@@H](O)C[C@@H]12.[Na+]` (stereo partly drawn) [Compound 21, Sodium 2-(3α,7α-dihydroxy-6α-ethyl-24-nor 5β-cholan-23-amido)-ethyl sulfate] came in with a pKa in “pKa” below 1. Also, the Emax on TGR5 [4] was 105 ± 2%; at TGR5 [5], 127 ± 1%; at mTGR5 it was 107%; in [6], 136%; in series [7] it was 136 ± 7%. The concentration giving a half-maximal response (EC50) on TGR5 [4] was determined as 20 ± 10 nM; at TGR5 [5], 190 ± 50 nM; at mTGR5, 70 nM; in series [6], 5400 nM; in [7], 1500 ± 500 nM. Also, the “LogPA−” value in series [1] stood at 0.9. Moreover, the CMC in series [3] worked out at 4 mM. Also, the solubility thermodynamic at 1 week in “Water solubility” was 1810 µM. In addition, the “Albumin binding (%)” value on bovine serum albumin worked out at 86%.
In turn, `CC[C@H]1[C@@H](O)C2C3CC[C@H]([C@H](C)C[C@H](C)C(=O)O)[C@@]3(C)[C@@H](O)CC2[C@@]2(C)CC[C@@H](O)C[C@@H]12` (some centres unmarked) [Ref. Cmpd. A, reference compound] displayed a pKa in the series “pKa” of 5. Besides, the “LogPA−” value in [1] was 1.4. Moreover, the CMpH in series [2] is 6.1. Moreover, in series [3], the CMC was 2 mM and the STCMC was found to be 50.1 Dyne/cm. Besides, at bovine serum albumin, the “Albumin binding (%)” value was 62%.
For `C[C@H](CCC(=O)NCCS(=O)(=O)O)[C@H]1CC[C@H]2[C@@H]3[C@H](O)C[C@@H]4C[C@H](O)CC[C@]4(C)[C@H]3C[C@H](O)[C@]12C` [TCA, reference compound], the pKa in “pKa” is listed as <1 ^. Moreover, the “LogPA−” value in series [1] was −0.5. Moreover, in [3], the CMC is 4 mM and the STCMC is reported as 51 Dyne/cm. Also, the Ws entry in “Water solubility” is recorded as “hs”. In addition, the “Albumin binding (%)” value at bovine serum albumin was found to be 42%.
On to `C[C@H](CCC(=O)NCCS(=O)(=O)O)[C@H]1CC[C@H]2[C@@H]3[C@H](O)C[C@@H]4C[C@H](O)CC[C@]4(C)[C@H]3CC[C@]12C` [TCDCA, reference compound], for which, in “pKa”, the pKa is <1 ^. Further, the “LogPA−” value in [1] was 0.9. In series [3], the CMC was determined as 3 mM and the STCMC is given as 47.1 Dyne/cm. The Ws entry in “Water solubility” is given as “hs”. For the same molecule, at bovine serum albumin, the “Albumin binding (%)” value is listed as 70%.
Regarding `C[C@H](CCC(=O)O)[C@H]1CC[C@H]2[C@@H]3[C@@H](O)C[C@@H]4C[C@H](O)CC[C@]4(C)[C@H]3CC[C@]12C` [UDCA, ursodeoxycholic acid, reference compound], the “LogPA−” value in series [1] is 2.2. Besides, the CMpH in series [2] was 8.2. In addition, in series [3], the CMC came out at 10 mM and the STCMC turned out to be 50.5 Dyne/cm. In “Water solubility”, the solubility thermodynamic at 1 week is 7 µM (≈ 2.75 µg/mL). Besides, the “Albumin binding (%)” value at bovine serum albumin amounted to 94%.
